Experimental data taken from PubChem BioAssay AID588620 (NMMLSC, 2011).
Calls of active or inactive are those of the source.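 The calls were made as follows: active = fitted half-maximal concentration below 30 µM for cell fluorescence in pump-free yeast, so likely self-fluorescent; inactive = the rest.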

Experiment: concentration-dependent intrinsic compound fluorescence, S. cerevisiae AD/pABC3, flow cytometry, Cherry Pick1 hits, artefact control for antifungal efflux pump inhibitor project, dose response (AID 588620);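 also: red emission of unstained cells excited at 488 nm measured in PE-Texas Red channel; cell median fluorescence as percent of DMSO wells so 100% equals vehicle baseline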
Conditions: S. cerevisiae AD/pABC3 compound autofluorescence, flow cytometry; at 33.1 µM (top of the series)

Compound | fluorescence response, % of control
Cc1ccc(CN(Cc2cccnc2)C(=O)CN2C(=O)COc3ccccc32)o1 | 96.1% (inactive)
Cc1ccc(C)c(N2CCN(C(=O)C3CCCN(c4ncnc5c4nc4n5CCCCC4)C3)CC2)c1 (stereo unspecified) | 89.1% (inactive)
Nc1cc2c(cc1C(=O)c1cccc(Br)c1)OCCO2 | 92.7% (inactive)
COc1ccc(C2CC(c3ccccc3C(F)(F)F)=NN2c2ccc(S(N)(=O)=O)cc2)cc1 (stereo unspecified) | 106% (inactive)
CCOC(=O)c1cccc(NC(=O)c2ccc(NC(=O)c3ccco3)cc2)c1 | 85.8% (inactive)
NC(=O)c1nc(-c2cccs2)nc2c1[nH]c(=O)n2-c1ccc(F)cc1 | 93.5% (inactive)
CC(C)C(=O)N1CCC2(CC1)Oc1ccc(F)cc1C(=O)C21CC(c2ccc(Cl)cc2)=NO1 (stereo unspecified) | 105% (inactive)
O=C(/C=C/c1cccs1)N1CCC2(CC1)Oc1ccc(F)cc1C(=O)C21CC(c2ccccc2)=NO1 (stereo unspecified) | 96.4% (inactive)
Cc1ccc(CN2C(=O)C(CC(C)C)Nc3ncnc(N4CCN(c5ccccc5)CC4)c32)cc1 (stereo unspecified) | 102% (inactive)
O=C(c1ccoc1)N1CCC2(CC1)Oc1ccc(Cl)cc1C(=O)C21CC(c2ccc(Cl)cc2)=NO1 (stereo unspecified) | 119% (inactive)
NC1=NC[C@@H](Cc2ccc(O)cc2)N1CCCCC1CCCCC1 | 93.4% (inactive)
CCc1ccc(N=C2NC(=O)/C(=C/c3cc(OC)c(O)c(OC)c3)S2)cc1 | 419% (inactive)
COc1ccc(-c2sc3ccc(OC)cc3c2-c2ccc(OCCN3CCOCC3)cc2)cc1 | 96.3% (inactive)
Cc1ccc(S(=O)(=O)N2CCOCC2)cc1NC(=O)COC(=O)CNC(=O)c1ccccc1 | 102% (inactive)
COc1ccc2nc(C)cc(Sc3nc4ccccc4s3)c2c1 | 100% (inactive)
O=C(/C=C/c1ccccc1[N+](=O)[O-])NCCc1ccc(F)cc1 | 90.8% (inactive)
CCOc1ccccc1-c1nc(C(N)=O)c2[nH]c(=O)n(-c3ccc(F)cc3)c2n1 | 136% (inactive)
CCCCOc1ccc(C(=O)NCC(=O)OCC(=O)c2c(N)n(C)c(=O)n(C)c2=O)cc1 | 89% (inactive)
Cc1ccc2sc(N(CCCN(C)C)C(=O)c3ccc(Br)s3)nc2c1C | 78.2% (inactive)
COc1ccc(-c2[nH]c(-c3ccc4c(c3)OCO4)nc2-c2ccccc2)cc1 | 80.8% (inactive)
CC(C)C(=O)N1CCC2(CC1)Oc1ccc(F)cc1C(=O)C21CC(c2ccccc2)=NO1 (stereo unspecified) | 115% (inactive)

Compound | fluorescence response, % of control
COc1ccccc1-c1sc2ccccc2c1-c1ccc(OCCN2CCOCC2)cc1 | 99.3% (inactive)
COc1ccc(-n2ncc3c2CC(C)(C)CC3NC(=O)c2cnc(C)cn2)cc1 (stereo unspecified) | 99.3% (inactive)
CCC(Sc1nc2ccsc2c(=O)n1Cc1ccc(C(=O)O)cc1)C(=O)Nc1ccc(C)c(Cl)c1 (stereo unspecified) | 81.2% (inactive)
O=C(O)C(c1ccccc1)N1C(=O)/C(=C\c2ccc(O)c(O)c2)SC1=S (stereo unspecified) | 226% (inactive)
N#CCCN1CCN(C(=S)c2ccc(-c3ccc(Cl)c(Cl)c3)o2)CC1 | 75.6% (inactive)
O=C(COC(=O)c1ccc(Cl)cc1O)NCCN1C(=O)CSC1=O | 88.6% (inactive)
NC1=NC[C@H](Cc2ccc(O)cc2)N1CCCCC1CCCCC1 | 92.2% (inactive)
COc1ccc(-c2nc(C(N)=O)c3[nH]c(=O)n(-c4ccccc4OC)c3n2)c(OC)c1 | 74% (inactive)
Nc1ccc2nc(-c3cccc(-c4nc5ccc(N)cc5[nH]4)c3)[nH]c2c1 | 99.3% (inactive)
O=C(CCCc1ccccc1)Nc1cccc([N+](=O)[O-])c1 | 86.2% (inactive)
COc1ccc(S(=O)(=O)N(C)C[C@H]2Oc3c(NC(=O)NC4CCCCC4)cccc3C(=O)N([C@H](C)CO)C[C@@H]2C)cc1 | 119% (inactive)
Cc1cccc(C)c1NC(=O)C1CC2CCC1C2 (stereo unspecified) | 102% (inactive)
O=C1c2cc(Cl)ccc2OC2(CCNCC2)C12CC(c1ccccc1)=NO2 (stereo unspecified) | 107% (inactive)
Nc1c(Cl)cc(C2=NCCn3nc4ccccc4c32)cc1Cl | 88.6% (inactive)
O=S(=O)(Nc1cc(Sc2ncn[nH]2)c(O)c2ccccc12)c1ccccc1 | 140% (inactive)
CC(CCc1ccccc1)NC(=O)c1ccc(NC(=O)c2cccc(Br)c2)cc1 (stereo unspecified) | 88.6% (inactive)
Cc1sc2ncnc(SC(C)C(=O)N3c4ccccc4Sc4ccccc43)c2c1C (stereo unspecified) | 126% (inactive)
O=C(Oc1ccc2c(=O)c(Oc3ccc4ccccc4c3)coc2c1)c1cncc(Br)c1 | 90.5% (inactive)
COCC1CCN(C(=O)c2cc(COc3ccc(OC)c4ccccc34)on2)C1 (stereo unspecified) | 82.6% (inactive)
O=[N+]([O-])c1cnc2ccc3ccccc3c2c1 | 122% (inactive)
COc1ccc2cc(C#N)c(N3CCN(Cc4nnnn4CCC(C)C)CC3)nc2c1 | 113% (inactive)

Compound | fluorescence response, % of control
O=C(c1ccoc1)N1CCC2(CC1)Oc1ccc(F)cc1C(=O)C21CC(c2ccccc2)=NO1 (stereo unspecified) | 85.1% (inactive)
CCOc1ccc(C(=O)Nc2cccc(-c3cc4ccccc4oc3=O)c2)cc1[N+](=O)[O-] | 94.4% (inactive)
Cc1nn(CC(=O)NCc2cccs2)c(=O)c2nn(-c3ccccc3)c(C)c12 | 99% (inactive)
Cc1ccc(CN2C(=O)C(Cc3ccccc3)Nc3ncnc(N4CCN(c5ccccc5)CC4)c32)cc1 (stereo unspecified) | 111% (inactive)
COc1ccc(CNC(=O)C(C)n2nc(C)c3c(C)n(-c4ccc(C)cc4)nc3c2=O)cc1 (stereo unspecified) | 77.9% (inactive)
O=C(NC1CCCc2c1cnn2-c1ccccc1F)c1ccccn1 (stereo unspecified) | 81.2% (inactive)
Cc1noc(C)c1C(=O)N1CCC2(CC1)Oc1ccc(F)cc1C(=O)C21CC(c2ccc(Cl)cc2)=NO1 (stereo unspecified) | 90.5% (inactive)
O=C1C(Cc2ccccc2)Nc2ncnc(N3CCN(c4ccccc4)CC3)c2N1Cc1ccccc1 (stereo unspecified) | 105% (inactive)
Clc1ccc(C(c2ccc(Cl)cc2)n2cc[n+](CC(OCc3ccc(Cl)cc3Cl)c3ccc(Cl)cc3Cl)c2)cc1 (stereo unspecified) | 112% (inactive)
O=C(c1ccoc1)N1CCC2(CC1)Oc1ccc(F)cc1C(=O)C21CC(c2ccc(Cl)cc2)=NO1 (stereo unspecified) | 116% (inactive)
COc1cccc(-c2sc3ccc(OC)cc3c2-c2ccc(OCCN3CCCC3)cc2)c1 | 112% (inactive)
CC(C)(C)C1CCC(OC(=O)C[N+]2(C)CCCC2)CC1 (stereo unspecified) | 109% (inactive)
COc1ccc(-c2sc3ccccc3c2-c2ccc(OCCN(C)C)cc2)cc1 | 112% (inactive)
O=C(CSc1nnc(Cc2cccs2)n1Cc1ccco1)Nc1cccc(Cl)c1 | 128% (inactive)
COc1ccc(NC(=O)Nc2cccc3c2O[C@H](CN(C)C(=O)Nc2ccc(OC)cc2)[C@@H](C)CN([C@H](C)CO)C3=O)cc1 | 86% (inactive)
O=C(Nc1ccc(NC(=O)c2cccs2)cc1)c1ccc2ccccc2c1 | 125% (inactive)
C#CC[N+](C)(C)CCCCCCCCCCCC | 117% (inactive)
Cc1ccc(Cn2nnc3c(=O)[nH]c(C4CCN(S(=O)(=O)c5ccccc5F)CC4)nc32)cc1 | 90.8% (inactive)
COCCCn1c(=S)[nH]c2ccc(N3CCOCC3)cc2c1=O | 105% (inactive)
CCc1ccc(C2=NN(S(C)(=O)=O)C(c3cccs3)C2)cc1 (stereo unspecified) | 113% (inactive)
COc1ccc2c(c1)C(=O)N1[C@H]3c4cc(Cl)ccc4OC[C@@H]3[C@H](c3ccccc3)[C@]1(C)C(=O)N2 | 98.5% (inactive)

Compound | fluorescence response, % of control
COc1ccccc1CNS(=O)(=O)c1ccc2c(c1)CC(C)N2C(=O)C1CCC1 (stereo unspecified) | 85.7% (inactive)
O=C(COC(=O)c1c2ccccc2cc2ccccc12)Nc1ncc(C(F)(F)F)cc1Cl | 96.4% (inactive)
CC(C)n1cc(/C=N/NC(=O)COc2cccc3cccnc23)c2ccccc21 | 91.7% (inactive)
CCCCn1c(N)c(N(CC(C)C)C(=O)CN2C(=O)NC3(CC(C)CC(C)(C)C3)C2=O)c(=O)[nH]c1=O (stereo unspecified) | 95.1% (inactive)
CCC(Sc1nc2cc(OC)c(OC)cc2c(=O)n1CCc1ccc(OC)c(OC)c1)C(=O)NCCOC (stereo unspecified) | 83.6% (inactive)
Cn1cc(C(c2ccccn2)c2cn(C)c3ccccc23)c2ccccc21 | 97.1% (inactive)
COC(=O)C1=C(C)N=c2s/c(=C/c3ccoc3)c(=O)n2C1c1ccccc1 (stereo unspecified) | 821% (inactive)
CCOC(=O)c1c(-c2ccc(-c3ccccc3)cc2)csc1NC(=O)CNCCN(C)C | 135% (inactive)
O=C1c2cc(Cl)ccc2OC2(CCNCC2)C12CC(c1ccc(Cl)cc1)=NO2 (stereo unspecified) | 106% (inactive)
Cc1ccc(C(=O)N2CCC3(CC2)Oc2ccc(Cl)cc2C(=O)C32CC(c3cccnc3)=NO2)s1 (stereo unspecified) | 127% (inactive)
COc1ccccc1-c1sc2ccccc2c1-c1ccc(OCCN2CCCCC2)cc1 | 102% (inactive)
Cc1ccc(Cn2nnc3c(=O)[nH]c(C4CCN(S(=O)(=O)c5ccccc5)CC4)nc32)cc1 | 87.4% (inactive)
CCC(=O)NC(c1ccco1)c1cc(Cl)c2cccnc2c1O (stereo unspecified) | 99.8% (inactive)
CCO[C@@H]1OC(C(=O)Nc2ccccc2)=C[C@H](c2ccc(Br)cc2)[C@H]1CCCO | 102% (inactive)
COc1ccc([C@H]2CC(=O)C=C(c3ccnc4ccc(Cl)cc34)C2)cc1 | 92.4% (inactive)
COc1ccc(/C=C2\SC(=O)N(CCC(=O)Nc3ccccc3)C2=O)cc1OC | 99.1% (inactive)
O=C1Nc2ccccc2/C1=C/c1cnc(-c2ccccc2)[nH]1 | 128% (inactive)
COc1cc(CNC(C)(C)CO)cc(Br)c1OCc1ccc(Cl)cc1 | 130% (inactive)
